# “Also recorded” adds a separate entry of the source. Where two headings read alike, the source gives them in different places.
# How the values were obtained:
# Assay type in all cases: cell-based
# [1] = test system: B. cereus ATCC 7064; experiment: Broth microdilution MIC; conditions: for MIC: Bacillus cereus, ATCC7064, B. cereus ATCC 7064, read-out: MIC
# [2] = test system: Human Embryonic Kidney (HEK293) cells; experiment: Toxicity on a monolayer of HEK293 cells
# [3] = test system: E. coli ATCC 25922; experiment: Broth microdilution MIC (Gram negative specificity control); conditions: for antibacterial activity against E. coli (in words): E. coli negative control without T-box riboswitch
# [4] = test system: S. aureus ATCC 29213; experiment: Broth microdilution MIC
# From the text: (§1) The identity and purity of both PKZ 6 and 18 was confirmed by mass spectroscopy. Forty commercially available compounds chosen on the basis of initial in silico selections and similarity to our two hits were screened by disc diffusion assay (DDA) to determine their relative antibacterial activity with S. aureus. […] These 14 compounds were further evaluated by minimum inhibitory concentration assays (MIC)^41,42, and minimum bactericidal assays (MBC)^41 to confirm antibacterial activity, determine the concentration at which S. aureus growth is inhibited in liquid culture (MIC) and if they are acting as bacteriostatic or bactericidal agents (MBC). […] Representative embodiments are shown below.
# (§2) Broth microdilution assays^77, 78 were performed with B. subtilis, and S. aureus to determine the lowest compound concentration inhibiting visible growth, i.e., minimum inhibitory concentration (MIC) of the 4 original compounds. […] The insolubility of the fourth compound may account for its lack of antibacterial activity. […] The MICs of each compound are moderate.
# (§3) Strains were grown on trypticase soy agar (TSA) with 5% sheep blood at 37° C. for 24 hours. Five isolated colonies were used to inoculate 5 mL cation-adjusted Mueller-Hinton broth (CAMHB) contained in a 50 mL centrifuge tube. The resulting culture was incubated shaking at 200 rpm for 3 hours at 37° C. and then diluted in CAMHB until its turbidity matched that of a 0.5 McFarland standard (OD625 0.08-0.10). After the culture had been standardized against a 0.5 McFarland standard, it was diluted 1:10 in CAMHB and then 5 μL of this dilution was added to the appropriate wells of a 96-well, flat-bottomed tissue culture plate in which each row contained a twofold dilution series of a particular compound ranging in concentration from 0.25 μg/mL to 512 μg/mL. Each plate also included a sterility control well containing CAMHB to which standardized inoculum was not added and a growth control well containing CAMHB to which 5 μL standardized inoculum was added. […] With the exception of the sterility control well, all wells were inoculated within 15 minutes of inoculum preparation to ensure that the starting concentration of bacteria in each well was approximately 5×10^5 CFU/m L. A Tecan Sunrise microplate absorbance reader was used to measure the OD620 of each well before and after 20 h incubation at 37° C. MIC values were recorded as the lowest compound concentration at which no visible growth was observed after this incubation period.
# [5] = test system: B. subtilis; experiment: Disc diffusion assay, growth inhibition of B. subtilis; conditions: Table 1, ✓ = zone of inhibition observed
# From the text: The same 20 top binders and 8 additional predicted to interact with the cleft of the tyrRS mRNA Specifier Loop were selected from subsequent docking and preliminary fluorescence data.
# [6] = test system: E. coli ATCC 25922; experiment: MBC determination; conditions: for E. coli (MBC): Table 5 analogs, triplicate experiments, N/O = not observed at concentrations tested (512-0.25 μg/mL)
# Experimental: (§4) Following 24 h incubation of these subcultures at 37° C., MBC values were recorded as the lowest compound concentration at which no viable colonies were observed.
# [7] = test system: B. cereus ATCC 7064; experiment: MBC determination
# Experimental: as §4
# [8] = test system: E. faecalis ATCC 29212; experiment: MBC determination; conditions: N/O = not observed
# Experimental: as §4
# [9] = test system: B. subtilis BGSC 1A1; experiment: MBC determination
# Experimental: as §4
# [10] = test system: S. pneumoniae ATCC 49619; experiment: Broth microdilution MIC; conditions: for MIC: Streptococcus pneumoniae, ATCC49619, S. pneumoniae ATCC 49619, read-out: MIC
# [11] = test system: B. subtilis BGSC 1A1; experiment: Broth microdilution MIC; conditions: for MIC: Bacillus subtilis, BGSC1A1, B. subtilis BGSC 1A1, 20 h at 37° C., read-out: MIC
# Experimental: as §2, §3
# [12] = test system: E. faecalis ATCC 29212; experiment: Broth microdilution MIC
# [13] = test system: P. aeruginosa ATCC 27853; experiment: Broth microdilution MIC; conditions: N/O = not observed
# [14] = test system: S. aureus ATCC 29213; experiment: MBC determination; conditions: for S. aureus (MBC): Table 5 analogs, triplicate experiments, N/O = not observed at concentrations tested (512-0.25 μg/mL)
# From the text: as §1, §4
# [15] = test system: S. aureus; experiment: Disc diffusion assay (DDA) of PKZ6 and PKZ18 analogs with S. aureus; conditions: Table 4, 150 μg/ml, ✓ = zone of inhibition observed
# From the text: as §1
# All compounds were tested at a concentration of 150 μg/ml.
# [16] = S. aureus ATCC 29213, N/O = not observed
# [17] = Escherichia coli, ATCC25922, Table 5 analogs, triplicate experiments, N/O = not observed at concentrations tested (512-0.25 μg/mL), read-out: E. coli MIC
# [18] = Staphylococcus aureus, ATCC29213, Table 5 analogs, triplicate experiments, N/O = not observed at concentrations tested (512-0.25 μg/mL), read-out: S. aureus MIC
smiles,measurement,setting,value
CCn1c(=O)c(C(=O)NCCN2CCNCC2)c(O)c2ccccc21 [Compound 7],MIC,[1],512 µg/mL
same,16 hr post exposure % Live,[2]; 32 ug/ml,100%
same,16 hr post exposure Morphology,[2]; 32 ug/ml,Normal
same,24 hr post exposure % Confluent,[2]; 32 ug/ml,90%
same,24 hr post exposure % Live,[2]; 32 ug/ml,90%
same,24 hr post exposure Morphology,[2]; 32 ug/ml,Normal
same,16 hr post exposure % Live,[2]; 64 ug/ml,80%
same,16 hr post exposure Morphology,[2]; 64 ug/ml,Mix of Normal and Detached
same,24 hr post exposure % Confluent,[2]; 64 ug/ml,80%
same,24 hr post exposure % Live,[2]; 64 ug/ml,75%
same,24 hr post exposure Morphology,[2]; 64 ug/ml,Mix of Normal and Detached
same,16 hr post exposure % Live,[2]; 128 ug/ml,0%
same,16 hr post exposure Morphology,[2]; 128 ug/ml,Rounded and Detached
same,24 hr post exposure % Confluent,[2]; 128 ug/ml,0%
same,24 hr post exposure % Live,[2]; 128 ug/ml,0%
same,24 hr post exposure Morphology,[2]; 128 ug/ml,Rounded and Detached
same,antibacterial activity against E. coli (in words),[3],moderate antibacterial activity
same,MIC,"[3]; Escherichia coli, ATCC25922, E. coli ATCC 25922, N/O = not observed, read-out: MIC",512 µg/mL
same,MIC,[4]; [16],N/O (N/D)
same,ZOI observed,[5],✓
same,MBC,"[6]; Escherichia coli, ATCC25922, E. coli ATCC 25922, read-out: MBC",512 µg/mL
same,MBC,[7]; N/O = not observed,N/O
same,MBC,[8],N/O
same,MBC,[9]; IND = indeterminate,IND
same,MIC,[10],128 µg/mL
same,antibacterial activity against B. subtilis (in words),[11],active
same,MIC,[11],32 µg/mL
same,MIC,"[12]; Enterococcus faecalis, ATCC29212, N/O = not observed, read-out: MIC",512 µg/mL
same,MIC,[13],N/O (N/D)
Cc1sc(NC(=O)C2C3CCC(C3)C2C(=O)O)nc1-c1ccc(C(C)C)cc1 (centres unmarked) [Compound 18],MIC,[1],64 µg/mL
same,growth inhibition of B. cereus (in words),[1]; at moderate concentrations,inhibited growth
same,16 hr post exposure % Live,[2]; 32 ug/ml,100%
same,16 hr post exposure Morphology,[2]; 32 ug/ml,Normal
same,24 hr post exposure % Confluent,[2]; 32 ug/ml,90%
same,24 hr post exposure % Live,[2]; 32 ug/ml,100%
same,24 hr post exposure Morphology,[2]; 32 ug/ml,Normal
same,16 hr post exposure % Live,[2]; 64 ug/ml,100%
same,16 hr post exposure Morphology,[2]; 64 ug/ml,Normal
same,24 hr post exposure % Confluent,[2]; 64 ug/ml,90%
same,24 hr post exposure % Live,[2]; 64 ug/ml,90%
same,24 hr post exposure Morphology,[2]; 64 ug/ml,Mix of Normal and Detached
same,16 hr post exposure % Live,[2]; 128 ug/ml,100%
same,16 hr post exposure Morphology,[2]; 128 ug/ml,Normal
same,24 hr post exposure % Confluent,[2]; 128 ug/ml,15%
same,24 hr post exposure % Live,[2]; 128 ug/ml,15%
same,24 hr post exposure Morphology,[2]; 128 ug/ml,Rounded and Detached
same,MIC,"[3]; E. coli ATCC 25922, N/O = not observed",N/O (N/D)
same,antibacterial activity against E. coli (in words),[3],did not inhibit growth
same,antibacterial activity against S. aureus (in words),[4],inhibited growth; also recorded: displayed antibacterial properties
same,MIC,"[4]; Staphylococcus aureus, ATCC29213, S. aureus ATCC 29213, N/O = not observed, read-out: MIC",64 µg/mL
same,ZOI observed,[5],✓
same,MBC,"[7]; Bacillus cereus, ATCC7064, N/O = not observed, read-out: MBC",64 µg/mL
same,MBC,"[9]; Bacillus subtilis, BGSC1A1, IND = indeterminate, read-out: MBC",64 µg/mL
same,MBC,[14]; [16],N/O
same,MIC,[10],64 µg/mL
same,growth inhibition of S. pneumoniae (in words),[10]; at moderate concentrations,inhibited growth
same,antibacterial activity against B. subtilis (in words),[11],inhibited growth; also recorded: active
same,MIC,[11],64 µg/mL
same,MIC,[12]; N/O = not observed,N/O (N/D)
same,MIC,[13],N/O (N/D)
CC(C)CCNC(=O)c1c(O)n2c3c(cccc3c1=O)CCC2 [Compound 0603],ZOI observed,[15],✓
same,MIC,[3]; [17],512 µg/mL
same,MIC,[4]; [18],512 µg/mL
same,E. coli (MBC),[6],N/O
same,S. aureus (MBC),[14],N/O
CC1CC(NC(=O)C2C3CCC(C3)C2C(=O)O)CC(C)(C)C1 (centres unmarked) [Compound 0605],ZOI observed,[15],✓
O=C(NCCN1CCNCC1)c1c(O)c2ccccc2[nH]c1=O [Compound 0607],ZOI observed,[15],✓
same,MIC,[3]; [17],256 µg/mL
same,MIC,[4]; [18],512 µg/mL
same,E. coli (MBC),[6],N/O
same,S. aureus (MBC),[14],N/O
O=C(NCCNCCO)c1c(O)c2cccc3c2n(c1=O)CCC3 [Compound 0609],ZOI observed,[15],✓
CCCn1c(=O)c(C(=O)NCCN2CCNCC2)c(O)c2ccccc21 [Compound 0610],ZOI observed,[15],✓
O=c1cc(O)c2c(=O)n3c4c(cccc4c2o1)CCC3 [Compound 0611],ZOI observed,[15],✓

# Source: patent publication US10266527B2, “T-box riboswitch-binding anti-bacterial compounds” (THE RESEARCH FOUNDATION FOR THE STATE UNIVERSITY OF NEW YORK, priority 2013, dated 2019)
